System: T1, GH18 chitinase from Curtobacterium sp. GD1 (carbohydrate binding protein, CBP)
T1 construct: native secreted enzyme, partially purified from chitin-induced culture supernatant (two major bands); 429 aa precursor, predicted 31 aa signal peptide removed; genome has 3 GH18 genes
Test: colorimetric p-nitrophenol release at […] nm, Lineweaver-Burk
Assay type: biochemical
Settings: 100 mmol/L sodium phosphate pH 7.0, 37 °C, partially purified enzyme; substrate range 3-90 mmol/L; substrate of the Km not restated beside the value; unit printed as mmol (mmol/L presumably meant)

For `CC(=O)N[C@H]1[C@H](Oc2ccc([N+](=O)[O-])cc2)O[C@H](CO)[C@@H](O[C@@H]2O[C@H](CO)[C@@H](O[C@@H]3O[C@H](CO)[C@@H](O)[C@H](O)[C@H]3NC(C)=O)[C@H](O)[C@H]2NC(C)=O)[C@@H]1O` [p-nitrophenyl-β-D-N,N’,N”-triacetylchitotriose], which Km is on record?
Its Km is 10 mmol.

From PMC8565777, “The chitinolytic activity of the Curtobacterium sp. isolated from field-grown soybean and analysis of its genome sequence” (PLoS ONE, 2021)
